{"source": "ChEMBL document CHEMBL1201862", "about": "“PubChem BioAssay data set” (2004)", "key": {"Estrogen receptor beta": {"target": "Estrogen receptor beta (Homo sapiens, UniProt Q92731)", "sequence (Q92731 whole entry)": "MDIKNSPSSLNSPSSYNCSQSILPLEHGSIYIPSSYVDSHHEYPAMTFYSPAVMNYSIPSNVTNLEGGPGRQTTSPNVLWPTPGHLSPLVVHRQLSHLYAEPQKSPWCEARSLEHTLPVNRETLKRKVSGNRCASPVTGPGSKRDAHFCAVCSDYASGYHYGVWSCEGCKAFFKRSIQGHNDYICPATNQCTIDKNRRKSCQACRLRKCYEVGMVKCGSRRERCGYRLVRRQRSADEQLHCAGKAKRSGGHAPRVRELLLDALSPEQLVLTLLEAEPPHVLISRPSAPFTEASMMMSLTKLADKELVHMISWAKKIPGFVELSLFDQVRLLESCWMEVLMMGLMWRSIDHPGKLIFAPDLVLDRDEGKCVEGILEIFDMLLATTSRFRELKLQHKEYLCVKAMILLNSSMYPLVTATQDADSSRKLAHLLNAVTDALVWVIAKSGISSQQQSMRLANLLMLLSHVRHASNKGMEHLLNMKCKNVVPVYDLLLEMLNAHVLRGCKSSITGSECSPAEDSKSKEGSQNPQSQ"}, "Estrogen receptor": {"target": "T1, Estrogen receptor (Homo sapiens, UniProt P03372)", "T1 sequence (P03372 whole entry)": "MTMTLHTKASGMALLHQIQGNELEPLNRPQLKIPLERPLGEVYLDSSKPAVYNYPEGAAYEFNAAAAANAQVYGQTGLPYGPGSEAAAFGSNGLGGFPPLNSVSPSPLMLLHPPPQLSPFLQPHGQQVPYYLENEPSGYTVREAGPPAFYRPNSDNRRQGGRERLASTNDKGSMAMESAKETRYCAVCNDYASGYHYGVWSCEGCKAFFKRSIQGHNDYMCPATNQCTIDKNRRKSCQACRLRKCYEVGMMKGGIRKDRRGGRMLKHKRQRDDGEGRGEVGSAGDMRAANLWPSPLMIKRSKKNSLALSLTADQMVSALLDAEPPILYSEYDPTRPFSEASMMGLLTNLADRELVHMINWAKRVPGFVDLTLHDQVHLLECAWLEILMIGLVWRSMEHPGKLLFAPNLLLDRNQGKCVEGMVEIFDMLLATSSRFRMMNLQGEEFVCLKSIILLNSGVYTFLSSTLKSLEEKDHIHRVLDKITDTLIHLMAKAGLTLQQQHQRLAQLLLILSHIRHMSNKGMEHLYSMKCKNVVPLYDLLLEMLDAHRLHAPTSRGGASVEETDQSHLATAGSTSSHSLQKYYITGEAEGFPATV"}, "[1]": {"target": "T2, High affinity choline transporter 1 (Homo sapiens, UniProt Q9GZV3)", "T2 sequence (Q9GZV3 whole entry)": "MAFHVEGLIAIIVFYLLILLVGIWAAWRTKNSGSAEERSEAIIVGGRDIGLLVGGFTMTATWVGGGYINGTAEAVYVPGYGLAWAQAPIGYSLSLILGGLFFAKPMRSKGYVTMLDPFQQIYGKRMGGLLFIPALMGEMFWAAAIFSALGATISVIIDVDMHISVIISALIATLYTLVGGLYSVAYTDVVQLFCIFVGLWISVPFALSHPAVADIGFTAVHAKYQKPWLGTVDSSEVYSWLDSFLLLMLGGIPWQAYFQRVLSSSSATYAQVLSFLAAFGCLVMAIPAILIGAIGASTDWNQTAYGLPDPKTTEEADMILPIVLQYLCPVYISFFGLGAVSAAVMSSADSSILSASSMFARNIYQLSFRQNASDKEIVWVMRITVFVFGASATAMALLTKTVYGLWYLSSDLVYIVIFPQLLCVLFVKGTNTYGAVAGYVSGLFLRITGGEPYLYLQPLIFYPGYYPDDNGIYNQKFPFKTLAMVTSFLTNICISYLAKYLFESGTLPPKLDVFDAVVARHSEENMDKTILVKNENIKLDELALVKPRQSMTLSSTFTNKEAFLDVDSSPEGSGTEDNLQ", "test": "CHT inhibitors, dose response, cell-based, 5-point CRC, membrane potential dye (AID 504840)", "assay_type": "functional"}, "[2]": {"test": "inhibitors of intracellular T. cruzi replication, confirmation, NIH3T3 host cells, beta-gal luminescence (AID 2044);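 also: luminescent beta-galactosidase reporter signal from transgenic T. cruzi replicating inside host cells; inhibitors lower the luminescence signal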", "assay_type": "functional, cell-based"}, "[3]": {"test": "cytotoxicity toward NIH3T3 fibroblasts, dose response, counter-screen, cell-based, ATP luminescence, mouse fibroblasts (AID 2010);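 also: cells exposed to compound for about 90 hours before reading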", "assay_type": "functional"}, "[4]": {"target": "T3, Mannose-6-phosphate isomerase (Homo sapiens, UniProt P34949)", "T3 sequence (P34949 whole entry)": "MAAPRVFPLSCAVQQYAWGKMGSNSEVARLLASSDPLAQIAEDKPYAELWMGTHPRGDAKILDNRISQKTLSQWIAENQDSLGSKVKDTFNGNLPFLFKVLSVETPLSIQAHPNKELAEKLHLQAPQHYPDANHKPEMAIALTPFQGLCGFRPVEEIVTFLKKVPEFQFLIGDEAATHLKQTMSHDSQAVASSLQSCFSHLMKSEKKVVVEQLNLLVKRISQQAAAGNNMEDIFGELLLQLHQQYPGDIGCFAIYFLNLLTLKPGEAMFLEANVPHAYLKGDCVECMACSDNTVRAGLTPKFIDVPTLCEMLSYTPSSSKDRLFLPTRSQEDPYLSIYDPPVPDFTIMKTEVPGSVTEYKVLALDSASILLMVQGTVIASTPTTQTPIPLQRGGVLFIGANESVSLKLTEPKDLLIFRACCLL", "test": "human PMI inhibitors, high substrate, primary screen, biochemical, fluorescence intensity, high mannose 6-phosphate (AID 1220)"}, "Ephrin type-A receptor 4": {"target": "Ephrin type-A receptor 4 (Mus musculus, UniProt Q03137)", "sequence (Q03137 whole entry)": "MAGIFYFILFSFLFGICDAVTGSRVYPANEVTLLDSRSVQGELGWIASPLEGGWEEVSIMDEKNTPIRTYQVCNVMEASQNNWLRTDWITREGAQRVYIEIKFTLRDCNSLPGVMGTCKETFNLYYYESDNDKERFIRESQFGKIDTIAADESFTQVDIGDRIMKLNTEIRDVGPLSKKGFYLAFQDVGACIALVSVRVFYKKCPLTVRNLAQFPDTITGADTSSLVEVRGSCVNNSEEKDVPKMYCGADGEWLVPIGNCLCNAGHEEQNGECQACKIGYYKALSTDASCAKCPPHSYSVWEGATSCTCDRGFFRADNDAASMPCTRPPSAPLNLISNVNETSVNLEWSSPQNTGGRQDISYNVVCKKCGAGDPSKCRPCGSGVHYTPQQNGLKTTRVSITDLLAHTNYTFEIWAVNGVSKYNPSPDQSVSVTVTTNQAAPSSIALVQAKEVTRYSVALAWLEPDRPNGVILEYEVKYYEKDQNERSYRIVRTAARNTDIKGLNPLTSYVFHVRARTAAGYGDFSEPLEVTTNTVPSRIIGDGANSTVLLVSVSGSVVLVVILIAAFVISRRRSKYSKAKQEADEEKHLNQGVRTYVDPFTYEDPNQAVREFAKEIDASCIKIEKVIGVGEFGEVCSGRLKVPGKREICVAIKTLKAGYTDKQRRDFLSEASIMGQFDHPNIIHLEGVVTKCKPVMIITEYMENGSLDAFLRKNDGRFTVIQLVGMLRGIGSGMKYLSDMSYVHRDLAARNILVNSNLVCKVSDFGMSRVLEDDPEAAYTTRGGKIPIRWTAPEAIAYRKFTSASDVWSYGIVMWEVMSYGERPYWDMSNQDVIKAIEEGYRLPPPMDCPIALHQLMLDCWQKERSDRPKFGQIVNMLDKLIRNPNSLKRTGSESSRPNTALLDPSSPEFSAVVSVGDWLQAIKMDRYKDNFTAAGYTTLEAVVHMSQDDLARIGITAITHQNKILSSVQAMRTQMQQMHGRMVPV", "test": "inhibitors of EphA4 binding to KYL peptide, primary screen, biochemical, colorimetric, mouse EphA4 (AID 689)", "assay_type": "functional"}, "[5]": {"test": "Luminescence Cell-Based Dose Retest to Confirm Inhibitors of Cancer Stem Cells. [Related pubchem assays (depositor defined):AID2717, AID2721]", "assay_type": "functional, Homo sapiens", "conditions": "Homo sapiens"}, "[6]": {"target": "T4, Hepatocyte nuclear factor 4-alpha (Homo sapiens, UniProt P41235)", "T4 sequence (P41235 whole entry)": "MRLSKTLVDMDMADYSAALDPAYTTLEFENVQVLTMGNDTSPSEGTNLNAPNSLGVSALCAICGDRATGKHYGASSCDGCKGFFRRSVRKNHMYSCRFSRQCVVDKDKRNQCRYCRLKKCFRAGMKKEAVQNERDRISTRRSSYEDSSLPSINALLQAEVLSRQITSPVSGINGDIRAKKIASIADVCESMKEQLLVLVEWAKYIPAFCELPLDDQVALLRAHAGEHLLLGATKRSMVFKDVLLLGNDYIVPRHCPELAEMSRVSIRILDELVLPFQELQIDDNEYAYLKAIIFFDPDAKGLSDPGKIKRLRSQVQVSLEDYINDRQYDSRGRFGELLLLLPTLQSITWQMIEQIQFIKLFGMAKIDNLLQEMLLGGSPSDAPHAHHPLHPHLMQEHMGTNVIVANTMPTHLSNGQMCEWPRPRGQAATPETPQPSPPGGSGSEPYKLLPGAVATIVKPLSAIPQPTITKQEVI", "assay_type": "functional, cell-based"}, "[7]": {"target": "T5, Histone-lysine N-methyltransferase NSD2 (Homo sapiens, UniProt O96028)", "T5 sequence (O96028 whole entry)": "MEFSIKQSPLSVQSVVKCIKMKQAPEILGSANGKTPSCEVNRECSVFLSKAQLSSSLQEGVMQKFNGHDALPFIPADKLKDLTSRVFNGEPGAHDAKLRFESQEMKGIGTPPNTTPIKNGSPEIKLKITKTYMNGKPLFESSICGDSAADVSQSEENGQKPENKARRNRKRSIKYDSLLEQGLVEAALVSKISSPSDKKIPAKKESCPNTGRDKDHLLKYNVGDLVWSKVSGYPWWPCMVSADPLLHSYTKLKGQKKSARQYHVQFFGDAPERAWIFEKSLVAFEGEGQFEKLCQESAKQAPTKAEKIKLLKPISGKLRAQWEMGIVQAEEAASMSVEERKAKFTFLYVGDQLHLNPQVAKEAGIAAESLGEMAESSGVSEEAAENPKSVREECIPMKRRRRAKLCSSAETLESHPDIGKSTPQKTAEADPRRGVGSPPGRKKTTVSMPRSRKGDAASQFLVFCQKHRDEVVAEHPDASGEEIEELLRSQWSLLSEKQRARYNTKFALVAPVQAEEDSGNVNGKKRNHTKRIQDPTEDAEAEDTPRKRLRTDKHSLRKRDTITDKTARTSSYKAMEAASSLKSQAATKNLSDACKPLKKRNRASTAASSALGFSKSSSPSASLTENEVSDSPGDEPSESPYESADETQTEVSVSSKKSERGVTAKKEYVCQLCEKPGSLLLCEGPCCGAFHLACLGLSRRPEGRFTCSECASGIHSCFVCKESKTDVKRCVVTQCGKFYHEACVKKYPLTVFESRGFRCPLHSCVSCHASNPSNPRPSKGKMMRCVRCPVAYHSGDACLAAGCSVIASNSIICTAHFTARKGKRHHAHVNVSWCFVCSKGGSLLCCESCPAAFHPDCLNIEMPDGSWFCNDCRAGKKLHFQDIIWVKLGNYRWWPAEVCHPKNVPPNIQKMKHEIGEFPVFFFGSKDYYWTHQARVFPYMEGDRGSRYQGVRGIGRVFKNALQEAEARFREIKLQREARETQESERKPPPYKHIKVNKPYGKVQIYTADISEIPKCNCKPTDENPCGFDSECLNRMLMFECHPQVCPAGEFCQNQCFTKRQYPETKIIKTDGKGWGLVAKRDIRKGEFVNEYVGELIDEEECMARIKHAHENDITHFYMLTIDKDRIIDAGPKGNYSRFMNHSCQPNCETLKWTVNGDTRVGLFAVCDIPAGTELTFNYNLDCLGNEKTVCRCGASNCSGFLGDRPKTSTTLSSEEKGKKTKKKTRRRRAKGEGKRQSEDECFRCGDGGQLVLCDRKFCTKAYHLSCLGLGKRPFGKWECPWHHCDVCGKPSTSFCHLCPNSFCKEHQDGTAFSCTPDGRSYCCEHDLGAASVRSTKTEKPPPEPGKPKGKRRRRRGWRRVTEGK", "assay_type": "biochemical"}, "[8]": {"target": "T6, Dual specificity protein phosphatase 3 (Homo sapiens, UniProt P51452)", "T6 sequence (P51452 whole entry)": "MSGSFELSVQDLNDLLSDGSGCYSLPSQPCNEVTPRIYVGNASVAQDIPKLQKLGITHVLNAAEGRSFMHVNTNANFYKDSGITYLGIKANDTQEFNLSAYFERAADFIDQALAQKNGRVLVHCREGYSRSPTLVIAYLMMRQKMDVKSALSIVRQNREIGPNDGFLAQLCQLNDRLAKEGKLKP", "test": "VHR1 phosphatase inhibitors, primary screen, biochemical, absorbance, uHTS (AID 1654)"}, "[9]": {"target": "T6, Dual specificity protein phosphatase 3", "test": "VHR1 phosphatase inhibitors, biochemical (AID 1878)"}, "[10]": {"target": "T7, Dual specificity protein phosphatase 6 (Rattus norvegicus, UniProt Q64346)", "T7 sequence (Q64346 whole entry)": "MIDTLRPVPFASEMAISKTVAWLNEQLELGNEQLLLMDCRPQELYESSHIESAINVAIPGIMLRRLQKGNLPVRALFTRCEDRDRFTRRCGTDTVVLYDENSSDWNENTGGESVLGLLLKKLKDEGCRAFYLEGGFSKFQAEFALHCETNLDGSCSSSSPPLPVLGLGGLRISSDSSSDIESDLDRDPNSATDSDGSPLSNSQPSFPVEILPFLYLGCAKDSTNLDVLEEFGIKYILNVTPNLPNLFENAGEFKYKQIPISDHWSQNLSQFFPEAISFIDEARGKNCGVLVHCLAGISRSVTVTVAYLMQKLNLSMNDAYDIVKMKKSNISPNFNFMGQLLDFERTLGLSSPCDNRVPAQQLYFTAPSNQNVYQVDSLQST", "test": "MKP-3 phosphatase inhibitors, primary screen, biochemical, rat enzyme, in vitro (AID 425)"}, "[11]": {"target": "Induced myeloid leukemia cell differentiation protein Mcl-1 (Homo sapiens, UniProt Q07820)", "sequence (Q07820 whole entry)": "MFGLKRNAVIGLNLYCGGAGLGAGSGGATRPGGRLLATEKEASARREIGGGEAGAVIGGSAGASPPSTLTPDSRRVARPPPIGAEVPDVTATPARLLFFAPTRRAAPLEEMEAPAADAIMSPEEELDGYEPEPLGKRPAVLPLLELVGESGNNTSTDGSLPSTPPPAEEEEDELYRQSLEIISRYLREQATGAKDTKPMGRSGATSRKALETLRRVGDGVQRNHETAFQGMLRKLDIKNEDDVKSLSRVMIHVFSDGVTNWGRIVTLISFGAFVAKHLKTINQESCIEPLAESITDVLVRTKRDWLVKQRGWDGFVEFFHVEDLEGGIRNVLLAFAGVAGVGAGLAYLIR", "assay_type": "functional"}, "[12]": {"test": "THP-1 cell cytotoxicity, dose response, cytotoxicity control for Vif-APOBEC3G degradation inhibitor project, THP-1 cells (AID 1117359)", "assay_type": "functional", "conditions": "Human immunodeficiency virus 1, THP-1"}, "[13]": {"target": "Voltage-gated inwardly rectifying potassium channel KCNH2 (Homo sapiens, UniProt Q12809)", "sequence (Q12809 whole entry)": "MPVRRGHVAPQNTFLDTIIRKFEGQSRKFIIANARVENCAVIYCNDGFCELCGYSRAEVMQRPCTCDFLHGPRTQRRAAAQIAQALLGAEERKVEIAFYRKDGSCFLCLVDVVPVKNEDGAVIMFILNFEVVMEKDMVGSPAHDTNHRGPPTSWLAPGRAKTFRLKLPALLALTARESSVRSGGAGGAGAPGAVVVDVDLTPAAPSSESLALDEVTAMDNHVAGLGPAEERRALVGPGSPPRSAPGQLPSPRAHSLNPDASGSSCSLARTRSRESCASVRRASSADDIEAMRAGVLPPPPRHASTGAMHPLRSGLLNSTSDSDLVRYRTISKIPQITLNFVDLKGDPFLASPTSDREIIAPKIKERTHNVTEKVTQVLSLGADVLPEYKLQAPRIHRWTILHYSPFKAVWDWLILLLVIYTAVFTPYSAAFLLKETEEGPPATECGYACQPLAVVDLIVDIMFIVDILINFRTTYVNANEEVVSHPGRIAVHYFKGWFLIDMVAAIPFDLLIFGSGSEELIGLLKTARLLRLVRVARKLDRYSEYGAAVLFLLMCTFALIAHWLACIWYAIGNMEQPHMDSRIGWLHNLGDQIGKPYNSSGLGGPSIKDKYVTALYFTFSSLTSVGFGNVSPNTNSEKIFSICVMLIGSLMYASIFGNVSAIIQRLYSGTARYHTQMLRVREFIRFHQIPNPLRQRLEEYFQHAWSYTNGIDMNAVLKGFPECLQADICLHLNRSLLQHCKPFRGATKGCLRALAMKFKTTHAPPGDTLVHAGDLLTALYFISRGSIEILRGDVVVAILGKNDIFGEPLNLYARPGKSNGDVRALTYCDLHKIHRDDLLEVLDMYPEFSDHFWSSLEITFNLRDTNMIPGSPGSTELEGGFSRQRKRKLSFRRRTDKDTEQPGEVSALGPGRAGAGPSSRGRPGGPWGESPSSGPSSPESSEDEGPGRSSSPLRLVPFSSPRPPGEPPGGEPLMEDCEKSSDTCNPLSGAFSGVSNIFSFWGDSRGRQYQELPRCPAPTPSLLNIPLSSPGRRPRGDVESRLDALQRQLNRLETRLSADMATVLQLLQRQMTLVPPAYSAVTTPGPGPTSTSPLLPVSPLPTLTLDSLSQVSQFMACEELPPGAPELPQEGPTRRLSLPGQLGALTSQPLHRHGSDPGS", "test": "hERG protection from proarrhythmic block, potency, dose response, cell-based, thallium flux (AID 2121)", "assay_type": "ADME"}, "Cytochrome P450 3A4": {"target": "Cytochrome P450 3A4 (Homo sapiens, UniProt P08684)", "sequence (P08684 whole entry)": "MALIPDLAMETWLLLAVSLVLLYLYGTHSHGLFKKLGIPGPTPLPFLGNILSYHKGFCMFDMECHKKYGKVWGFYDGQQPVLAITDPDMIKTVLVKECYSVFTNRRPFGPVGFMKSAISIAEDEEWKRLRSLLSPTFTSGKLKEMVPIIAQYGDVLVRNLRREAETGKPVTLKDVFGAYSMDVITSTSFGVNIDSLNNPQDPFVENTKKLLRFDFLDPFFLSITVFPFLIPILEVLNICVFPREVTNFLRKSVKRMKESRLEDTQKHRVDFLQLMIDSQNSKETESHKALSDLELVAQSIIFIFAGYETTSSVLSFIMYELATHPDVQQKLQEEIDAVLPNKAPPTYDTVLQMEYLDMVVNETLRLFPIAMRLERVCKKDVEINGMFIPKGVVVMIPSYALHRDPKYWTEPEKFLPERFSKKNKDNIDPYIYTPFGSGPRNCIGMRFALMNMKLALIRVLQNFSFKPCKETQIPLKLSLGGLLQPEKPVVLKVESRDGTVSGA"}}, "note": "The source made the active and inactive calls."}
{"molecule": "CC1(C)CCCC2=C1CC1C(=O)N(O)C(=O)C1C2", "note": "(stereo unspecified)", "values": [{"measurement": "IC50", "setting": "Estrogen receptor beta", "value": "> 50 µM (not active)"}]}
{"molecule": "Cc1sc2ncnc(NCc3ccco3)c2c1C", "values": [{"measurement": "IC50", "setting": "Estrogen receptor", "value": "35.3 µM (not active)"}, {"measurement": "IC50", "setting": "Estrogen receptor beta", "value": "29.4 µM (active)"}, {"measurement": "IC50", "setting": "[1]", "value": "13.2 µM (active)"}]}
{"molecule": "C=C1N(C)c2cc([N+](=O)[O-])c(N)cc2C1(C)C", "values": [{"measurement": "EC50", "setting": "[2]", "value": "5.96 µM (active)"}, {"measurement": "EC50", "setting": "[3]", "value": "> 60 µM (not active)"}, {"measurement": "IC50", "setting": "[4]", "value": "11.5 µM (active)"}]}
{"molecule": "CCOC(=O)c1c(NC(C)=O)sc2c1CCC(C=O)=C2Sc1ccccc1", "values": [{"measurement": "IC50", "setting": "Ephrin type-A receptor 4", "value": "2.26 µM (active)"}, {"measurement": "AC50", "setting": "[5]", "value": "3.85 µM (active)"}, {"measurement": "IC50", "setting": "[6]", "value": "28.1 µM (inactive)"}]}
{"molecule": "CC1Cc2ccccc2N1C(=O)CSc1nnc(-c2ccc(S(=O)(=O)N3CCCC3)cc2)n1C", "note": "(stereo unspecified)", "values": [{"measurement": "IC50", "setting": "[4]", "value": "> 50 µM (not active)"}]}
{"molecule": "CCN(CC)CCCN(Cc1cc2cc3c(cc2nc1O)OCCO3)C(=O)Nc1ccccc1", "values": [{"measurement": "IC50", "setting": "Ephrin type-A receptor 4", "value": "13.3 µM (active)"}, {"measurement": "AC50", "setting": "[7]", "value": "> 20 µM (inactive)"}]}
{"molecule": "COC(=O)c1ccc(O)c2nc3c(C=O)c(O)cc(O)c3nc12", "note": "[LOMOFUNGIN]", "values": [{"measurement": "IC50", "setting": "[8]", "value": "2.06 µM (active)"}, {"measurement": "IC50", "setting": "[9]", "value": "< 1.23 µM (inactive)"}, {"measurement": "IC50", "setting": "[10]", "value": "48.2 µM (active)"}, {"measurement": "IC50", "setting": "[11]", "value": "3.76 µM (active)"}, {"measurement": "CC50", "setting": "[12]", "value": "8.31 µM (active)"}]}
{"molecule": "O=C(NC(=S)Nc1cccc(Cl)c1N1CCCCC1)c1ccco1", "values": [{"measurement": "EC50", "setting": "[13]", "value": "0.46 µM (active)"}, {"measurement": "AC50", "setting": "[5]", "value": "4.12 µM (active)"}, {"measurement": "AC50", "setting": "Cytochrome P450 3A4", "value": "15.8 µM (inconclusive)"}]}
